For the test, the target named is T1, PD-1/PD-L1 interaction (PD-1-Ig / PD-L1-His) (Homo sapiens, UniProt Q9NZQ7).
T1 construct: hPDL1(18-239)-TVMV-His; TVMV protease site linker (C); made in house; host or cells: HEK293T
Briefly: PD-1/PD-L1 Homogenous Time-Resolved Fluorescence (HTRF) binding assay. Conditions: PD-L1-His 10 nM, PD-1-Ig 20 nM, read-out: Range or IC50. The method in brief:
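Human PD-L1-His (10 nM final) was pre-incubated with inhibitor for 15 min, then PD-1-Ig (20 nM final) was added for a further 15 min in dPBS with 0.1% BSA and 0.05% Tween-20. Binding was detected by HTRF using Eu-cryptate anti-Ig (1 nM) and APC anti-His (20 nM).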

pIC50: −log10 of the molar value. Like-named read-outs stand apart in the source and are kept apart here.

In general, pIC50 refers to the IC50 on a negative log10 scale, so that one unit is a factor of ten.

T1 sequence (Q9NZQ7 with tags, fused parts or gaps): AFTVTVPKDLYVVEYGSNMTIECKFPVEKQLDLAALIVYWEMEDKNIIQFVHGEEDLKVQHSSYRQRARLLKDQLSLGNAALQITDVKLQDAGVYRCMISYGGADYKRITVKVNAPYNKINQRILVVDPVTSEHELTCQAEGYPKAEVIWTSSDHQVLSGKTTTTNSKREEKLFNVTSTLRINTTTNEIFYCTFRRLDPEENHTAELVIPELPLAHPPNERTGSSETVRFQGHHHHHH

Regarding `Cc1c(COc2cc(OCc3cncc(C#N)c3)c(CNC(CCO)C(=O)O)cc2Cl)cccc1-c1cccc(COc2cc(OCc3cncc(C#N)c3)c(CNC(CCO)C(=O)O)cc2Cl)c1C` (stereo not drawn) [Example 40270], the negative logarithm of the IC50 (pIC50) (IC50 range class) was 7.70 to 10.40.

Turning to `Cc1c(COc2cc(OCc3cncc(C#N)c3)c(CNC/C=C/C(=O)O)cc2Cl)cccc1-c1cccc(COc2cc(OCc3cncc(C#N)c3)c(CNC/C=C/C(=O)O)cc2Cl)c1C` [Example 40280], the negative-log IC50 (pIC50) (IC50 range class) is 7.70 to 10.40.

On to `COC(=O)[C@@H]1CCCCN1Cc1cc(Cl)c(OCc2cccc(-c3cccc(COc4cc(OCc5cncc(C#N)c5)c(CN5CCCC[C@H]5C(=O)OC)cc4Cl)c3C)c2C)cc1OCc1cncc(C#N)c1` [Example 40300], for which the pIC50 (IC50 range class) was 6.00 to 7.05.

Turning to `COC(=O)C1CCN(Cc2cc(Cl)c(OCc3cccc(-c4cccc(COc5cc(OCc6cncc(C#N)c6)c(CN6CCC(C(=O)OC)C(O)C6)cc5Cl)c4C)c3C)cc2OCc2cncc(C#N)c2)CC1O` (stereo not drawn) [Example 40310], the negative-log IC50 (pIC50) (IC50 range class) is 7.05 to 7.70.

As for `COC[C@H](NCc1cc(Cl)c(OCc2cccc(-c3cccc(COc4cc(OCc5cncc(C#N)c5)c(CN[C@@H](COC)C(=O)O)cc4Cl)c3C)c2C)cc1OCc1cncc(C#N)c1)C(=O)O` [Example 40340], the negative logarithm of the IC50 (pIC50) (IC50 range class) is 7.70 to 10.40.

As to `Cc1c(COc2cc(OCc3cncc(C#N)c3)c(CN3CCC[C@H]3C(=O)O)cc2Cl)cccc1-c1cccc(COc2cc(OCc3cncc(C#N)c3)c(CN3CCC[C@H]3C(=O)O)cc2Cl)c1C` [Example 40350], the negative-log IC50 (pIC50) (IC50 range class) is 7.70 to 10.40.

`Cc1c(COc2cc(OCc3cncc(C#N)c3)c(CN[C@H](C(=O)O)c3ccccc3)cc2Cl)cccc1-c1cccc(COc2cc(OCc3cncc(C#N)c3)c(CN[C@H](C(=O)O)c3ccccc3)cc2Cl)c1C` [Example 40360]: the pIC50 (IC50 range class) was 7.70 to 10.40.

Regarding `Cc1c(COc2cc(OCc3cncc(C#N)c3)c(CN3CCOC[C@@H]3C(=O)O)cc2Cl)cccc1-c1cccc(COc2cc(OCc3cncc(C#N)c3)c(CN3CCOC[C@@H]3C(=O)O)cc2Cl)c1C` [Example 40370], where the note is “IC50 range class”, the pIC50 is 7.70 to 10.40.

Consider `Cc1c(COc2cc(OCc3cncc(C#N)c3)c(CN3CCCC(C(=O)O)C3)cc2Cl)cccc1-c1cccc(COc2cc(OCc3cncc(C#N)c3)c(CN3CCCC(C(=O)O)C3)cc2Cl)c1C` (stereo not drawn) [Example 40380], for which, for the setting “IC50 range class”, the pIC50 is 7.70 to 10.40.

In the case of `Cc1c(COc2cc(OCc3cncc(C#N)c3)c(CNC(CC(=O)O)c3ccc(F)cc3)cc2Cl)cccc1-c1cccc(COc2cc(OCc3cncc(C#N)c3)c(CNC(CC(=O)O)c3ccc(F)cc3)cc2Cl)c1C` (stereo not drawn) [Example 40390], the negative logarithm of the IC50 (pIC50) (IC50 range class) is 7.05 to 7.70.

Take `Cc1c(COc2cc(OCc3cncc(C#N)c3)c(CNC(C)CC(=O)O)cc2Cl)cccc1-c1cccc(COc2cc(OCc3cncc(C#N)c3)c(CNC(C)CC(=O)O)cc2Cl)c1C` (stereo not drawn) [Example 40400]: the negative-log IC50 (pIC50) (IC50 range class) was 7.70 to 10.40.

Consider `Cc1c(COc2cc(OCc3cncc(C#N)c3)c(CNCCC(=O)O)cc2Cl)cccc1-c1cccc(COc2cc(OCc3cncc(C#N)c3)c(CNCCC(=O)O)cc2Cl)c1C` [Example 40410], for which the pIC50 (IC50 range class) was 7.70 to 10.40.

As for `Cc1c(COc2cc(OCc3cncc(C#N)c3)c(CN3CC(C(=O)O)C3)cc2Cl)cccc1-c1cccc(COc2cc(OCc3cncc(C#N)c3)c(CN3CC(C(=O)O)C3)cc2Cl)c1C` [Example 40420], the pIC50 (IC50 range class) was 7.70 to 10.40.

With `Cc1c(COc2cc(OCc3cncc(C#N)c3)c(CN3C[C@@H](C)C[C@H]3C(=O)O)cc2Cl)cccc1-c1cccc(COc2cc(OCc3cncc(C#N)c3)c(CN3C[C@@H](C)C[C@H]3C(=O)O)cc2Cl)c1C` [Example 40430], for the setting “IC50 range class”, the negative logarithm of the IC50 (pIC50) was 7.70 to 10.40.

Regarding `Cc1c(COc2cc(OCc3cncc(C#N)c3)c(CNC(C(=O)O)C(C)C)cc2Cl)cccc1-c1cccc(COc2cc(OCc3cncc(C#N)c3)c(CNC(C(=O)O)C(C)C)cc2Cl)c1C` (stereo not drawn) [Example 40440], where the note is “IC50 range class”, the pIC50 was 7.70 to 10.40.

On to `CSCCC(NCc1cc(Cl)c(OCc2cccc(-c3cccc(COc4cc(OCc5cncc(C#N)c5)c(CNC(CCSC)C(=O)O)cc4Cl)c3C)c2C)cc1OCc1cncc(C#N)c1)C(=O)O` (stereo not drawn) [Example 40450], for which, where the note is “IC50 range class”, the negative logarithm of the IC50 (pIC50) was 7.70 to 10.40.

On to `Cc1c(COc2cc(OCc3cncc(C#N)c3)c(CNC(Cc3c[nH]c4ccccc34)C(=O)O)cc2Cl)cccc1-c1cccc(COc2cc(OCc3cncc(C#N)c3)c(CNC(Cc3c[nH]c4ccccc34)C(=O)O)cc2Cl)c1C` (stereo not drawn) [Example 40460], for which, for the setting “IC50 range class”, the pIC50 is 7.70 to 10.40.

Take `Cc1c(COc2cc(OCc3cncc(C#N)c3)c(CN[C@@H](CC#N)C(=O)O)cc2Cl)cccc1-c1cccc(COc2cc(OCc3cncc(C#N)c3)c(CN[C@@H](CC#N)C(=O)O)cc2Cl)c1C` [Example 40470]: for the setting “IC50 range class”, the pIC50 was 7.70 to 10.40.

Consider `Cc1c(COc2cc(OCc3cncc(C#N)c3)c(CNC(Cc3ccccc3)C(=O)O)cc2Cl)cccc1-c1cccc(COc2cc(OCc3cncc(C#N)c3)c(CNC(Cc3ccccc3)C(=O)O)cc2Cl)c1C` (stereo not drawn) [Example 40480], for which the pIC50 (IC50 range class) was 7.70 to 10.40.

On to `Cc1c(COc2cc(OCc3cncc(C#N)c3)c(CN3CCC[C@H](C(=O)O)C3)cc2Cl)cccc1-c1cccc(COc2cc(OCc3cncc(C#N)c3)c(CN3CCC[C@H](C(=O)O)C3)cc2Cl)c1C` [Example 40490], for which, for the setting “IC50 range class”, the pIC50 is 7.70 to 10.40.

As for `Cc1c(COc2cc(OCc3cncc(C#N)c3)c(CNC[C@H](C)C(=O)O)cc2Cl)cccc1-c1cccc(COc2cc(OCc3cncc(C#N)c3)c(CNC[C@H](C)C(=O)O)cc2Cl)c1C` [Example 40500], under “IC50 range class”, the pIC50 is 7.70 to 10.40.

For the molecule `Cc1c(COc2cc(OCc3cncc(C#N)c3)c(CNC3CCC[C@@H]3C(=O)O)cc2Cl)cccc1-c1cccc(COc2cc(OCc3cncc(C#N)c3)c(CN[C@@H]3CCC[C@@H]3C(=O)O)cc2Cl)c1C` (stereo partly drawn) [Example 40510], the pIC50 (IC50 range class) is 7.70 to 10.40.

Turning to `Cc1c(COc2cc(OCc3cncc(C#N)c3)c(CN3CC(C(=O)O)C(c4ccccc4Cl)C3)cc2Cl)cccc1-c1cccc(COc2cc(OCc3cncc(C#N)c3)c(CN3CC(C(=O)O)C(c4ccccc4Cl)C3)cc2Cl)c1C` (stereo not drawn) [Example 40520], for the setting “IC50 range class”, the pIC50 is 6.00 to 7.05.

In the case of `Cc1c(COc2cc(OCc3cncc(C#N)c3)c(CN[C@H](CC(=O)O)Cc3ccc(I)cc3)cc2Cl)cccc1-c1cccc(COc2cc(OCc3cncc(C#N)c3)c(CN[C@H](CC(=O)O)Cc3ccc(I)cc3)cc2Cl)c1C` [Example 40530], the negative-log IC50 (pIC50) (IC50 range class) was 6.00 to 7.05.

On to `COC(=O)CC(CC(C)C)NCc1cc(Cl)c(OCc2cccc(-c3cccc(COc4cc(OCc5cncc(C#N)c5)c(CNC(CC(=O)OC)CC(C)C)cc4Cl)c3C)c2C)cc1OCc1cncc(C#N)c1` (stereo not drawn) [Example 40550], for which the negative-log IC50 (pIC50) (numeric IC50) was 5.04.

On to `Cc1c(COc2cc(OCc3cncc(C#N)c3)c(CNC(Cc3ccccc3)C(N)=O)cc2Cl)cccc1-c1cccc(COc2cc(OCc3cncc(C#N)c3)c(CNC(Cc3ccccc3)C(N)=O)cc2Cl)c1C` (stereo not drawn) [Example 40590], for which, for the setting “IC50 range class”, the negative logarithm of the IC50 (pIC50) is 6.00 to 7.05.

For the molecule `Cc1c(COc2cc(OCc3cncc(C#N)c3)c(CN[C@@H](Cc3cnc[nH]3)C(N)=O)cc2Cl)cccc1-c1cccc(COc2cc(OCc3cncc(C#N)c3)c(CN[C@@H](Cc3cnc[nH]3)C(N)=O)cc2Cl)c1C` [Example 40620], the pIC50 (IC50 range class) was 7.05 to 7.70.

As for `Cc1c(COc2cc(OCc3cncc(C#N)c3)c(CN[C@H](C(N)=O)C3CC3)cc2Cl)cccc1-c1cccc(COc2cc(OCc3cncc(C#N)c3)c(CN[C@H](C(N)=O)C3CC3)cc2Cl)c1C` [Example 40670], for the setting “IC50 range class”, the pIC50 was 7.05 to 7.70.

`Cc1c(COc2cc(OCc3cncc(C#N)c3)c(CN3CCC[C@H]3C(N)=O)cc2Cl)cccc1-c1cccc(COc2cc(OCc3cncc(C#N)c3)c(CN3CCC[C@H]3C(N)=O)cc2Cl)c1C` [Example 40680]: the negative logarithm of the IC50 (pIC50) (IC50 range class) is 6.00 to 7.05.

As for `Cc1c(COc2cc(OCc3cncc(C#N)c3)c(CN3CCC[C@@H]3C(N)=O)cc2Cl)cccc1-c1cccc(COc2cc(OCc3cncc(C#N)c3)c(CN3CCC[C@@H]3C(N)=O)cc2Cl)c1C` [Example 40690], where the note is “IC50 range class”, the pIC50 was 6.00 to 7.05.

Turning to `Cc1c(COc2cc(OCc3cncc(C#N)c3)c(CN[C@@H](Cc3c[nH]c4ccccc34)C(=O)O)cc2Cl)cccc1-c1cccc(COc2cc(OCc3cncc(C#N)c3)c(CN[C@@H](Cc3c[nH]c4ccccc34)C(=O)O)cc2Cl)c1C` [Example 40700], the negative-log IC50 (pIC50) (IC50 range class) was 7.70 to 10.40.

Take `COC(=O)CC(O)CNCc1cc(Cl)c(OCc2cccc(-c3cccc(COc4cc(OCc5cncc(C#N)c5)c(CNCC(O)CC(=O)OC)cc4Cl)c3C)c2C)cc1OCc1cncc(C#N)c1` (stereo not drawn) [Example 40710]: under “IC50 range class”, the negative-log IC50 (pIC50) is 7.70 to 10.40.

As for `COC(=O)CC(O)CNCc1cc(Cl)c(OCc2cccc(-c3cccc(COc4cc(OCc5cncc(C#N)c5)c(CNC/C=C\C(=O)O)cc4Cl)c3C)c2C)cc1OCc1cncc(C#N)c1` (stereo not drawn) [Example 40720], the negative logarithm of the IC50 (pIC50) (IC50 range class) was 7.05 to 7.70.

Take `Cc1c(COc2cc(OCc3cncc(C#N)c3)c(CNC/C=C\C(=O)O)cc2Cl)cccc1-c1cccc(COc2cc(OCc3cncc(C#N)c3)c(CNC/C=C\C(=O)O)cc2Cl)c1C` [Example 40730]: the negative logarithm of the IC50 (pIC50) (numeric IC50) was 7.66.

For the molecule `Cc1c(COc2cc(OCc3cncc(C#N)c3)c(CN[C@@H](CCO)C(=O)O)cc2Cl)cccc1-c1cccc(COc2cc(OCc3cncc(C#N)c3)c(CN[C@@H](CCO)C(=O)O)cc2Cl)c1C` [Example 40740], the negative-log IC50 (pIC50) (IC50 range class) was 7.70 to 10.40.

On to `CCCN(Cc1cc(Cl)c(OCc2cccc(-c3cccc(COc4cc(OCc5cncc(C#N)c5)c(CN(CCC)[C@@H](CCO)C(=O)O)cc4Cl)c3C)c2C)cc1OCc1cncc(C#N)c1)[C@@H](CCO)C(=O)O` [Example 40750], for which the pIC50 (IC50 range class) is 7.70 to 10.40.

For `Cc1c(COc2cc(OCc3cncc(C#N)c3)c(CN(C)[C@@H](CCO)C(=O)O)cc2Cl)cccc1-c1cccc(COc2cc(OCc3cncc(C#N)c3)c(CN(C)[C@@H](CCO)C(=O)O)cc2Cl)c1C` [Example 40760], the negative logarithm of the IC50 (pIC50) (IC50 range class) was 7.70 to 10.40.

In the case of `Cc1c(COc2cc(OCc3cncc(C#N)c3)c(CN[C@@H](CCO)C(=O)O)cc2Cl)cccc1-c1cccc(COc2cc(OCc3cncc(C#N)c3)c(CN[C@H](CCO)C(=O)O)cc2Cl)c1C` [Example 40770], the negative-log IC50 (pIC50) (numeric IC50) was 10.40.

Turning to `COCCC(NCc1cc(Cl)c(OCc2cccc(-c3cccc(COc4cc(OCc5cncc(C#N)c5)c(CNC(CCOC)C(=O)O)cc4Cl)c3C)c2C)cc1OCc1cncc(C#N)c1)C(=O)O` (stereo not drawn) [Example 40780], the pIC50 (IC50 range class) is 7.70 to 10.40.

The values are drawn from patent publication US10144706B2 (BRISTOL-MYERS SQUIBB COMPANY, priority 2016, dated 2018).
